From patent US10800772B2 (Gilead Sciences, Inc., priority 2016, dated 2020) come the findings set out here.

The structures appear in SMILES notation.

Assay type in all cases: cell-based, HIV-1
Assay [1] relates to HIV-IIIb (wildtype). Description: Antiviral assay in MT4 cells, HIV-IIIb wildtype. As to conditions: Human immunodeficiency virus 1, IIIB, MT4, 120 h, read-out: WT EC50. The essentials: (§1)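 Compounds were titrated as 3-fold serial dilutions at 10 concentrations, in quadruplicate, against 2000 MT4 cells/well that had been infected for 3 h with HIV-IIIb at 0.004 m.o.i. Viruses were wildtype or integrase T174I mutants from breakthrough selection or dose-escalation passaging; mock-infected cells were run in parallel. After 5 days' culture, EC50 was derived as 50% reduction of CellTiter-Glo luminescence, which reflects HIV-1 replication.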

Assay [2] has as its system HIV-IIIb IN T174I BT. Description: Antiviral assay in MT4 cells, HIV-IIIb IN T174I BT virus (from viral breakthrough). As to conditions: Human immunodeficiency virus 1, IIIB, MT4, 120 h, read-out: T174I BT EC50, MT4 cells, HIV-IIIb IN T174I BT (viral breakthrough), 5 days, CellTiter-Glo. The essentials: as §1
(In general: Cellular ATP, detected with luciferase, serves as a proxy for viable cell number.)

The subject of assay [3] is HIV-IIIb IN T174I DE. Nature of the assay: Antiviral assay in MT4 cells, HIV-IIIb IN T174I DE virus (from dose escalation passaging). To be noted: Human immunodeficiency virus 1, IIIB, MT4, 120 h, read-out: T174I DE EC50, MT4 cells, HIV-IIIb IN T174I DE (dose escalation), 5 days, CellTiter-Glo. The essentials: as §1

Turning to `Cc1cc2nc(-c3ccc4c(c3)c(C3CCN(C5CN(C(=O)C6CC6)C5)CC3)nn4C)sc2c(-c2ccc(Cl)cc2)c1[C@H](OC(C)(C)C)C(=O)O` [Compound 152, (S)-2-(tert-butoxy)-2-(7-(4-chloro-phenyl)-2-(3-(1-(1-(cyclopropane-carbonyl)azetidin-3-yl)piperidin-4-yl)-1-methyl-1H-indazol-5-yl)-5-methylbenzo[d]thiazol-6-yl) acetic acid], the EC50 (as a rule, the concentration that produces a half-maximal response) in assay [1] turned out to be 23 nM; in assay [2], 175 nM; in assay [3] it was 210 nM.
For `COC(=O)N1CC(N2CCC(c3nn(C)c4ccc(-c5nc6cc(C)c([C@H](OC(C)(C)C)C(=O)O)c(-c7ccc(Cl)cc7)c6s5)cc34)CC2)C1` [Compound 153, (S)-2-(tert-butoxy)-2-(7-(4-chloro-phenyl)-2-(3-(1-(1-(methoxycarbonyl)azetidin-3-yl)piperidin-4-yl)-1-methyl-1H-indazol-5-yl)-5-methyl-benzo[d]thiazol-6-yl)acetic acid], the concentration giving a half-maximal response (EC50) in assay [1] is 11 nM; in assay [2], 159 nM; in assay [3] it was 217 nM.
Regarding `Cc1cc2nc(-c3ccc4c(c3)c(C3CCN(C5CC(F)(F)C5)CC3)nn4C)sc2c(-c2ccc(Cl)cc2)c1[C@H](OC(C)(C)C)C(=O)O` [Compound 155, (S)-2-(tert-butoxy)-2-(7-(4-chloro-phenyl)-2-(3-(1-(3,3-difluorocyclo-butyl)piperidin-4-yl)-1-methyl-1H-indazol-5-yl)-5-methylbenzo[d]thiazol-6-yl) acetic acid], the results for the EC50 in assay [1], in assay [2] and in assay [3] were 13 nM, 922 nM and 1920 nM, respectively.
Taken in the same sequence, the figures for `Cc1cc2nc(-c3ccc4c(c3)c(C3CCN(C(=O)[C@@H]5CCCO5)CC3)nn4C)sc2c(-c2ccc(Cl)cc2)c1[C@H](OC(C)(C)C)C(=O)O` [Compound 157, (S)-2-(tert-butoxy)-2-(7-(4-chloro-phenyl)-5-methyl-2-(1-methyl-3-(1-((S)-tetrahydrofuran-2-carbonyl)piperidin-4-yl)-1H-indazol-5-yl)benzo[d]thiazol-6-yl)acetic acid] were 11 nM, 620 nM and 789 nM.
Take `Cc1cc2nc(-c3ccc4c(c3)c(C3CCN(C(=O)C5(C)CCCO5)CC3)nn4C)sc2c(-c2ccc(Cl)cc2)c1[C@H](OC(C)(C)C)C(=O)O` (stereo partly drawn) [Compound 158, (2S)-2-(tert-butoxy)-2-(7-(4-chloro-phenyl)-5-methyl-2-(1-methyl-3-(1-(2-methyltetrahydro-furan-2-carbonyl)piperidin-4-yl)-1H-indazol-5-yl)benzo [d]thiazol-6-yl) acetic acid]: the EC50 in assay [1] was found to be 11 nM; in assay [2] it was 1300 nM; in assay [3] it was 1670 nM.
Regarding `Cc1cc2nc(-c3ccc4c(c3)c(C3CCN(C(=O)C5CCO5)CC3)nn4C)sc2c(-c2ccc(Cl)cc2)c1[C@H](OC(C)(C)C)C(=O)O` (stereo partly drawn) [Compound 159, (2S)-2-(tert-butoxy)-2-(7-(4-chloro-phenyl)-5-methyl-2-(1-methyl-3-(1-(oxetane-2-carbonyl)piperidin-4-yl)-1H-indazol-5-yl)benzo[d]thiazol-6-yl) acetic acid], the EC50 in assay [1] was 11 nM; in assay [2] it was 430 nM; in assay [3], 583 nM.
Turning to `Cc1cc2nc(-c3ccc4c(c3)c(C3CCN(C(=O)C5(C)COC5)CC3)nn4C)sc2c(-c2ccc(Cl)cc2)c1[C@H](OC(C)(C)C)C(=O)O` [Compound 160, (S)-2-(tert-butoxy)-2-(7-(4-chloro-phenyl)-5-methyl-2-(1-methyl-3-(1-(3-methyloxetane-3-carbonyl)piperidin-4-yl)-1H-indazol-5-yl)benzo[d]thiazol-6-yl)acetic acid], the EC50 in assay [1] is 15 nM; in assay [2], 375 nM; in assay [3], 756 nM.
Taken in the same sequence, the figures for `Cc1cc2nc(-c3ccc4c(c3)c(C3CCN(C(=O)C5COC5)CC3)nn4C)sc2c(-c2ccc(Cl)cc2)c1[C@H](OC(C)(C)C)C(=O)O` [Compound 161, (S)-2-(tert-butoxy)-2-(7-(4-chloro-phenyl)-5-methyl-2-(1-methyl-3-(1-(oxetane-3-carbonyl)piperidin-4-yl)-1H-indazol-5-yl)benzo[d]thiazol-6-yl)acetic acid] were 18 nM, 316 nM and 600 nM.
With `COC(=O)N1CC[C@H](N2CCC(c3nn(C)c4ccc(-c5nc6cc(C)c([C@H](OC(C)(C)C)C(=O)O)c(-c7ccc(Cl)cc7)c6s5)cc34)CC2)C1` [Compound 162, (S)-2-(tert-butoxy)-2-(7-(4-chloro-phenyl)-2-(3-(1-((S)-1-(methoxy-carbonyl)pyrrolidin-3-yl)piperidin-4-yl)-1-methyl-1H-indazol-5-yl)-5-methylbenzo[d]thiazol-6-yl) acetic acid], the EC50 in assay [1] was determined as 5 nM; in assay [2], 149 nM; in assay [3], 272 nM.
For `Cc1cc2nc(-c3ccc4c(c3)c(C3CCN([C@@H]5CCN(C)C5)CC3)nn4C)sc2c(-c2ccc(Cl)cc2)c1[C@H](OC(C)(C)C)C(=O)O` [Compound 164, (S)-2-(tert-butoxy)-2-(7-(4-chloro-phenyl)-5-methyl-2-(1-methyl-3-(1-((R)-1-methyl-pyrrolidin-3-yl)piperidin-4-yl)-1H-indazol-5-yl)benzo[d]thiazol-6-yl)acetic acid], the EC50 in assay [1] is 15 nM; in assay [2] it was 184 nM; in assay [3], 183 nM.
As to `COC(=O)N1CC[C@@H](N2CCC(c3nn(C)c4ccc(-c5nc6cc(C)c([C@H](OC(C)(C)C)C(=O)O)c(-c7ccc(Cl)cc7)c6s5)cc34)CC2)C1` [Compound 165, (S)-2-(tert-butoxy)-2-(7-(4-chloro-phenyl)-2-(3-(1-((R)-1-(methoxy-carbonyl)pyrrolidin-3-yl)piperidin-4-yl)-1-methyl-1H-indazol-5-yl)-5-methylbenzo[d]thiazol-6-yl) acetic acid], the EC50 stood at 5 nM in assay [1], 118 nM in assay [2] and 182 nM in assay [3].
`COC(=O)N1CC(N2CCC(c3nn(C)c4ccc(-c5nc6cc(C)c([C@H](OC(C)(C)C)C(=O)O)c(-c7ccc(Cl)cc7)c6s5)nc34)CC2)C1` [Compound 167, (S)-2-(tert-butoxy)-2-(7-(4-chloro-phenyl)-2-(3-(1-(1-(methoxycarbonyl)azetidin-3-yl)piperidin-4-yl)-1-methyl-1H-pyrazolo[4,3-b]pyridin-5-yl)-5-methylbenzo[d]thiazol-6-yl) acetic acid]: the EC50 in assay [1] came to 3 nM; in assay [2], 57 nM; in assay [3] it was 138 nM.
Turning to `Cc1cc2nc(-c3ccc4c(n3)c(C3CCN(C5CN(C(=O)OC(C)C)C5)CC3)nn4C)sc2c(-c2ccc(Cl)cc2)c1[C@H](OC(C)(C)C)C(=O)O` [Compound 168, (S)-2-(tert-butoxy)-2-(7-(4-chloro-phenyl)-2-(3-(1-(1-(isopropoxy-carbonyl)azetidin-3-yl)piperidin-4-yl)-1-methyl-1H-pyrazolo[4,3-b]pyridin-5-yl)-5-methylbenzo[d]thiazol-6-yl) acetic acid], the results for the EC50 in assay [1], in assay [2] and in assay [3] were 11 nM, 230 nM and 456 nM, respectively.
In the case of `Cc1cc2nc(-c3ccc4c(n3)c(C3CCN([C@@H]5CCN(C)C5)CC3)nn4C)sc2c(-c2ccc(Cl)cc2)c1[C@H](OC(C)(C)C)C(=O)O` [Compound 171, (S)-2-(tert-butoxy)-2-(7-(4-chloro-phenyl)-5-methyl-2-(1-methyl-3-(1-((R)-1-methyl-pyrrolidin-3-yl)piperidin-4-yl)-1H-pyrazolo[4,3-b]pyridin-5-yl)benzo[d]thiazol-6-yl)acetic acid], the EC50 came to 5 nM in assay [1], 98 nM in assay [2] and 239 nM in assay [3].
`Cc1cc2nc(-c3ccc4[nH]nc(C5CCN(C6COC6)CC5)c4n3)sc2c(-c2ccc(Cl)cc2)c1[C@H](OC(C)(C)C)C(=O)O` [Compound 174, (S)-2-(tert-butoxy)-2-(7-(4-chloro-phenyl)-5-methyl-2-(3-(1-(oxetan-3-yl)piperidin-4-yl)-1H-pyrazolo [4,3-b]pyridin-5-yl)benzo[d]thiazol-6-yl)acetic acid]: the EC50 in assay [1] stood at 11 nM; in assay [2] it was 219 nM; in assay [3], 587 nM.
In the case of `[2H]C([2H])([2H])n1nc(C2CCN(C3COC3)CC2)c2nc(-c3nc4cc(C)c([C@H](OC(C)(C)C)C(=O)O)c(-c5ccc(Cl)cc5)c4s3)ccc21` [Compound 176, (S)-2-(tert-butoxy)-2-(7-(4-chloro-phenyl)-5-methyl-2-(1-(methyl-d3)-3-(1-(oxetan-3-yl)piperidin-4-yl)-1H-pyrazolo[4,3-b]pyridin-5-yl)benzo[d]thiazol-6-yl)acetic acid], the EC50 came out at 3 nM in assay [1], 85 nM in assay [2] and 214 nM in assay [3].
For `CCn1nc(C2CCN(C3COC3)CC2)c2nc(-c3nc4cc(C)c([C@H](OC(C)(C)C)C(=O)O)c(-c5ccc(Cl)cc5)c4s3)ccc21` [Compound 177, (S)-2-(tert-butoxy)-2-(7-(4-chloro-phenyl)-2-(1-ethyl-3-(1-(oxetan-3-yl)piperidin-4-yl)-1H-pyrazolo[4,3-b]pyridin-5-yl)-5-methylbenzo[d]thiazol-6-yl) acetic acid], the EC50 in assay [1] is 3 nM; in assay [2] it was 47 nM; in assay [3] it was 185 nM.
